Results published in paper PMC3754837 (Neuropharmacology, 2013).

Experiments:
[1] = target: T1, m5-HT2C (C57Bl/6 mouse 5-HT2C-VNV receptor) (Mus musculus, UniProt P34968, I157V/I161V); test: [3H]-inositol phosphate accumulation; format: cell-based
T1 sequence (P34968 33-459 I157V/I161V): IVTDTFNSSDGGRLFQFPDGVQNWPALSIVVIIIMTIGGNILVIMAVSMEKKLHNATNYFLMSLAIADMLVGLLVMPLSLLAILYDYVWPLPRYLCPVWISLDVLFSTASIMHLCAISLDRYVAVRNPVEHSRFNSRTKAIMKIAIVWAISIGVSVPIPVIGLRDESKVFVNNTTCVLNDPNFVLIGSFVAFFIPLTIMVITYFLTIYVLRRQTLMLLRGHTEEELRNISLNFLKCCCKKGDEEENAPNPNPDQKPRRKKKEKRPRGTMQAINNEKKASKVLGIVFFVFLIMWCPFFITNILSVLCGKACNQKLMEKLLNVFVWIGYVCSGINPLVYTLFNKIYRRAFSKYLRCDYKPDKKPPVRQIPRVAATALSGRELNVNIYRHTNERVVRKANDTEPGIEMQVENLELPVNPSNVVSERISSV

[2] = target: T2, m5-HT2A (C57Bl/6 mouse 5-HT2A receptor) (Mus musculus, UniProt P35363); test: [3H]-ketanserin competition, HEK-293 membranes; format: binding
T2 sequence (P35363 whole entry): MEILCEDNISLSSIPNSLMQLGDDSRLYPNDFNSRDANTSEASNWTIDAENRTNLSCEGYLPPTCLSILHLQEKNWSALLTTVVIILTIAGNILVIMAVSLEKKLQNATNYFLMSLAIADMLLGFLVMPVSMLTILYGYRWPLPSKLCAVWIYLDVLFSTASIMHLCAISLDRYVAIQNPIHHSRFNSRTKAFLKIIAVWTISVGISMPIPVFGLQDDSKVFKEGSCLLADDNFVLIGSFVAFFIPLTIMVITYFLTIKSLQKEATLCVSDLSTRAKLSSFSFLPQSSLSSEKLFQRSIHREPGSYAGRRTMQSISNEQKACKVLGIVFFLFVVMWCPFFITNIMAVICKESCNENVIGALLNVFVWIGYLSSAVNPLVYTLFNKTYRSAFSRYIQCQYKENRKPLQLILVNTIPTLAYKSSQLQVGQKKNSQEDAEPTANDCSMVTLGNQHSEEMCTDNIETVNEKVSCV

[3] = target: T3, h5-HT2C (human 5-HT2C-INI receptor) (Homo sapiens, UniProt P28335); test: biochemical; format: binding
T3 sequence (P28335 33-458): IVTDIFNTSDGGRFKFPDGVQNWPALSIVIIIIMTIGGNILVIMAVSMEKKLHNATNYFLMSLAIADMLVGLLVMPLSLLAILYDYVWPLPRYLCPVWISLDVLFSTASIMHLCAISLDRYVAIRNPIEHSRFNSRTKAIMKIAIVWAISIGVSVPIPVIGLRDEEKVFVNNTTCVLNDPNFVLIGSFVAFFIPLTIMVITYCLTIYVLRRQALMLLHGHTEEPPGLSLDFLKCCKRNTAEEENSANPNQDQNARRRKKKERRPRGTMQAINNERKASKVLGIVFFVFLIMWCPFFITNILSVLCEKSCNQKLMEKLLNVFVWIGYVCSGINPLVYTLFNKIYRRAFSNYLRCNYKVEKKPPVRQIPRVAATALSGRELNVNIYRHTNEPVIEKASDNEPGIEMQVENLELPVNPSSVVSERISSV

[4] = target: T2, m5-HT2A (C57Bl/6 mouse 5-HT2A receptor); test: [3H]-inositol phosphate accumulation; format: cell-based
[5] = target: T1, m5-HT2C (C57Bl/6 mouse 5-HT2C-VNV receptor); test: [3H]-mesulergine competition, HEK-293 membranes; format: binding
[6] = target: T3, h5-HT2C (human 5-HT2C-INI receptor); test: [3H]-inositol phosphate accumulation; format: cell-based
[7] = target: T4, h5-HT2A (human 5-HT2A receptor) (Homo sapiens, UniProt P28223); test: [3H]-ketanserin competition, HEK-293 membranes; format: binding
T4 sequence (P28223 whole entry): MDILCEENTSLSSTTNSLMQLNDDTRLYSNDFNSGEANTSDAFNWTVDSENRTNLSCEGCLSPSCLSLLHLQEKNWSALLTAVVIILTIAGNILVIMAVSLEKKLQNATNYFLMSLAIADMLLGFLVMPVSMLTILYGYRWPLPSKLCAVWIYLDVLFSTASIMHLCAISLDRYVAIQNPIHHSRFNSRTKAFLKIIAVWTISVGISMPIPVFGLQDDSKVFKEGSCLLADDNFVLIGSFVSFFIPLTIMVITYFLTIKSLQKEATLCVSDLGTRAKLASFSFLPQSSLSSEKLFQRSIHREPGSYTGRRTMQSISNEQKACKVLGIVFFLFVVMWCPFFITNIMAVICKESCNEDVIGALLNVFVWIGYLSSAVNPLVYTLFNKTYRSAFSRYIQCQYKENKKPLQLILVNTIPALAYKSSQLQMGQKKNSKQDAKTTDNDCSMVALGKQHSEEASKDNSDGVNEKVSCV

[8] = target: T4, h5-HT2A (human 5-HT2A receptor); test: [3H]-inositol phosphate accumulation; format: cell-based
[9] = target: T2, m5-HT2A (C57Bl/6 mouse 5-HT2A receptor); test: saturation radioligand binding, HEK-293 membranes
[10] = target: T1, m5-HT2C (C57Bl/6 mouse 5-HT2C-VNV receptor); test: saturation radioligand binding, HEK-293 membranes

COc1cc(CC(C)N)c(OC)cc1I (racemic) [(±)-DOI]
EC50 [1]: 3.4 nM
Ki [2]: 4 nM
Ki [3]: 19.1 nM
EC50 [4]: 2.6 nM
Ki [5]: 46.7 nM
EC50 [6]: 5.5 nM

CN(C)[C@H]1Cc2ccccc2[C@H](c2ccccc2)C1 [(+)-PAT]
EC50 [1]: 2110 nM
Ki [2]: 332 nM
EC50 [4]: 352 nM
Ki [7]: 463 nM
Ki [5]: 1730 nM
EC50 [8]: 233 nM

CN(C)[C@@H]1Cc2ccccc2[C@@H](c2ccccc2)C1 [(−)-PAT]
EC50 [1]: 39 nM
Ki [2]: 116 nM
Ki [7]: 102 nM
Ki [5]: 53 nM

Cc1ccc([C@H]2C[C@H](N(C)C)Cc3ccccc32)cc1 [Methyl-PAT, (−)-(2S, 4R)-trans-4-(4′-methyl)-N,N-dimethylaminotetralin]
EC50 [1]: 808 nM
Ki [2]: 326 nM
Ki [3]: 128 nM
Ki [7]: 179 nM
Ki [5]: 868 nM
EC50 [6]: 1120 nM

Cn1ccc2cc3c(cc21)CCN3C(=O)Nc1cccnc1 [SB-206553]
Ki [2]: 342 nM
Ki [7]: 676 nM

Cc1cc2c(cc1Cl)N(C(=O)Nc1ccc(Oc3cccnc3C)nc1)CC2 [SB-242084]
Ki [2]: 96 nM
Ki [3]: 1.5 nM
Ki [7]: 146 nM
Ki [5]: 0.1 nM

O=C(c1ccc(F)cc1)C1CCN(CCn2c(=O)[nH]c3ccccc3c2=O)CC1 [[^3H]-ketanserin]
Kd [9]: 0.92 nM

CN1C[C@@H](NS(=O)(=O)N(C)C)C[C@@H]2c3cccc4c3c(cn4C)C[C@H]21 [[^3H]-mesulergine]
Kd [10]: 2.2 nM
